Test results: patent US6521641B1, “Male anti-fertility agents” (Allergan, Inc., priority 1998, dated 2003)

Test system: Sprague-Dawley rats
Experiment: Topical administration of AGN 193109 to rats with Recovery group (Example 4)
Type: in vivo, rat
Method: This experiment is conducted as indicated in Example 2, except that the drug is 193109 rather than AGN 194310, and a Recovery group is monitored for a period of time post-treatment as in Example 3. Dosages of the '109 drug is the same as for the topical treatment with the '310 drug.

[1] = rats, topical, at the effective dose

Cc1ccc(C2=CCC(C)(C)c3ccc(C#Cc4ccc(C(=O)O)cc4)cc32)cc1 [AGN 193109]
reversibility (testes histology) (male rats 12 weeks after administration): repopulation of the tubules with males gametes in various stages of development | histological analysis of the testes [1]: absence of primary spermatocytes, spermatids and spermatozoa in the majority of animals' seminiferous tubules | spermatogenic arrest (examination of the testes) [1]: spermatogenic arrest can be seen within thirty days after initiation of treatment
